Measurements as given in ChEMBL document CHEMBL1126870, “The crystal structure, absolute configuration, and phosphodiesterase inhibitory activity of (+)-1-(4-bromobenzyl)-4-(3-(cyclopentyloxy)- 4-methoxyphenyl)-pyrrolidin-2-one” (J Med Chem, 1993).

Molecular target: Phosphodiesterase 4 (Homo sapiens, UniProt P27815+Q08499+Q07343+Q08493)
Test: Inhibition of partially-purified PDE 4 from human monocytes

Structure (SMILES) | IC50
COc1ccc([C@@H]2CC(=O)N(Cc3ccc(Br)cc3)C2)cc1OC1CCCC1 | 0.17 µM
COc1ccc([C@H]2CC(=O)N(Cc3ccc(Br)cc3)C2)cc1OC1CCCC1 | 0.74 µM
